Among the data in patent US20220289685A1, “ANTIMALARIAL HEXAHYDROPYRIMIDINE ANALOGUES” (UCB BIOPHARMA SRL, priority 2019, published 2022) are IC50 values, retold here.

Counter-ions that a name gives are not always drawn.

For one assay, the system named is Plasmodium falciparum 3D7 strain. Nature of the assay: P. falciparum 3D7 asexual blood stage assay (SYBR green readout). The class given is cell-based. As to conditions: Plasmodium falciparum, 3D7, Erythrocyte, 72 h. How it is done: Asexual Blood Stage Assay
The assay used to measure the effect of test compounds on a bloodstream stage of Plasmodium falciparum: 3D7 strain employs SYBR green as the readout. This is a dye that binds to double stranded deoxyribonucleic acid (DNA) with a resulting increase in fluorescence, allowing detection of P. falciparum DNA in infected erythrocytes, and thereby providing a measure of parasite growth and propagation.
P. falciparum Culture Maintenance
Erythrocytes (A+ blood) were prepared for both parasite culture and assay by washing 4 times with incomplete media (15.9 g RPMI 1640 (25 mM HEPES, L-glutamine), 1 g NaHCO3, 2 g glucose, 400 μL gentacin (500 mg/mL), 2 mL hypoxanthine solution (13.6 g/L in 0.1M NaOH pH 7.3) in 1 litre of media). The cells were centrifuged at 1800 g for 5 minutes, before decanting the supernatant and re-suspending in fresh incomplete media. On the final wash, the cells were re-suspended in complete media (incomplete media with 5 g/L AlbumaxII), and centrifuged at 1800 g for 3 minutes. This cell sediment was treated as 100% haematocrit.
P. falciparum 3D7 was cultured in erythrocytes at 5% haematocrit in complete media at 37° C. (1% O2, 3% CO2, balance N2). Cultures were split on a weekly basis to achieve a 1% parasitaemia in erythrocites at 5% haematocrit in fresh media. Culture media is replaced by fresh media every other day (2 times during the week).
On day 1, test compounds were added to assay plates using Echo dispensing technology ([…] and 20 points titration). 50 nL of each compound dilution was added to 50 μL of culture (5% haematocrit, 0.5% parasitaemia) and incubated for 72 h at 37° C. (1% O2, 3% CO2, balance N2). Final concentrations of test compounds ranged from 50,000 nM to 15 nM, in […].
On day 4, 10 μL SYBR green (Invitrogen S7563 supplied as 10,000× concentrate in DMSO) pre-diluted to 3× concentrate with Lysis buffer (20 mM Tris pH 7.9, 5% EDTA, 0.16% w/v, 1.6% TX100 v/v) was added to the cultures and incubated in the dark, overnight, at room temperature.
On day 5, fluorescent signal was measured using a BioTek plate reader (excitation 485 nm, emission 528 nm). All data were processed using IDBS ActivityBase. Raw data were converted into percent inhibition through linear regression by setting the high inhibition control (mefloquine) as 100% and the no inhibition control (DMSO) as 0%. Quality control criteria for passing plates were as follows: Z′>0.5, S:B>3, 30% CV(no inhibition control)<15. The formula used to calculate Z′ is: […]
All EC50 curve fitting was undertaken using the following bi-phasic two site dose response using XLfit model 300 (IDBS):
where A=100 minus the top of the upper curve 1 and the bottom of lower curve; B=Hill slope; log(C)=IC50 concentration at lower site; log(D)=IC50 concentration at upper site; x=inhibitor concentration; and y=% inhibition.
On to `C[C@@H]1C[C@H](N2C(=N)N[C@](C)(c3cccc(NC(=O)c4ccc(C(F)(F)F)cn4)c3Cl)CC2=O)CCO1` (relative stereo) [Example 18, N-(2-Chloro-3-{(4S)-2-imino-4-methyl-1-[(2R*,4R*)-2-methyl-tetrahydropyran-4-yl]-6-oxo-hexahydropyrimidin-4-yl}phenyl)-5-(trifluoromethyl)pyridine-2-carboxamide hydrochloride], for which the midpoint of inhibition, the IC50, lay at 46 nM.

For the compound `C[C@@H]1C[C@H](N2C(=N)N[C@](C)(c3cccc(NC(=O)c4ncc5ccccn45)c3Cl)CC2=O)CCO1` (relative stereo) [Example 65, N-(2-Chloro-3-{(4S)-2-imino-4-methyl-1-[(2R*,4R*)-2-methyl-tetrahydropyran-4-yl]-6-oxo-hexahydropyrimidin-4-yl]phenyl)-imidazo[1,5-a]pyridine-3-carboxamide hydrochloride], the IC50 – broadly, the concentration that inhibits the measured activity by half – was determined as 51 nM.

For `C[C@@H]1C[C@H](N2C(=N)N[C@](C)(c3cccc(NC(=O)c4cc(C#N)ccn4)c3Cl)CC2=O)CCO1` (relative stereo) [Example 75, N-(2-Chloro-3-{(4S)-2-imino-4-methyl-1-[(2R*,4R*)-2-methyl-tetrahydropyran-4-yl]-6-oxo-hexahydropyrimidin-4-yl}phenyl)-4-cyanopyridine-2-carboxamide hydrochloride], 20 nM corresponded to half-maximal inhibition (IC50).

Consider `C[C@@H]1C[C@H](N2C(=N)N[C@](C)(c3cccc(NC(=O)c4ccc(F)cc4C(F)(F)F)c3Cl)CC2=O)CCO1` (relative stereo) [Example 80, N-(2-Chloro-3-{(4S)-2-imino-4-methyl-1-[(2R*,4R*)-2-methyl-tetrahydropyran-4-yl]-6-oxo-hexahydropyrimidin-4-yl}phenyl)-4-fluoro-2-(trifluoromethyl)-benzamide trifluoroacetic acid salt], for which it took 61 nM to reach half-maximal inhibition (IC50).

Take `C[C@@H]1C[C@H](N2C(=N)N[C@](C)(c3cccc(NC(=O)c4ncc(F)cc4C(F)(F)F)c3Cl)CC2=O)CCO1` (relative stereo) [Example 94, N-(2-Chloro-3-{(4S)-2-imino-4-methyl-1-[(2R*,4R*)-2-methyl-tetrahydropyran-4-yl]-6-oxo-hexahydropyrimidin-4-yl}phenyl)-5-fluoro-3-(trifluoromethyl)-pyridine-2-carboxamide hydrochloride]: the IC50 is 81 nM.

`C[C@@H]1C[C@H](N2C(=N)N[C@](C)(c3cccc(NC(=O)c4cc(C(F)(F)F)nn4C)c3Cl)CC2=O)CCO1` (relative stereo) [Example 32, N-(2-Chloro-3-{(4S)-2-imino-4-methyl-1-[(2R*,4R*)-2-methyl-tetrahydropyran-4-yl]-6-oxo-hexahydropyrimidin-4-yl}phenyl)-2-methyl-5-(trifluoromethyl)-pyrazole-3-carboxamide trifluoroacetic acid salt] came in with a half-inhibitory concentration (IC50) of 55 nM.

On to `C[C@@H]1C[C@H](N2C(=N)N[C@](C)(c3cccc(NC(=O)c4ccc(C#N)cc4)c3Cl)CC2=O)CCO1` (relative stereo) [Example 10, N-(2-Chloro-3-{(4S)-2-imino-4-methyl-1-[(2R*,4R*)-2-methyl-tetrahydropyran-4-yl]-6-oxo-hexahydropyrimidin-4-yl]phenyl)-4-cyanobenzamide hydrochloride], for which the half-inhibitory concentration (IC50) stood at 290 nM.

As to `C[C@@H]1C[C@H](N2C(=N)N[C@](C)(c3cccc(NC(=O)c4cnccn4)c3Cl)CC2=O)CCO1` (relative stereo) [Example 14, N-(2-Chloro-3-{(4S)-2-imino-4-methyl-1-[(2R*,4R*)-2-methyl-tetrahydropyran-4-yl]-6-oxo-hexahydropyrimidin-4-yl}phenyl)-pyrazine-2-carboxamide hydrochloride], the half-inhibitory concentration (IC50) worked out at 14 nM.

For the compound `C[C@@H]1C[C@H](N2C(=N)N[C@](C)(c3cccc(NC(=O)c4ccc(F)cc4)c3Cl)CC2=O)CCO1` (relative stereo) [Example 3, N-(2-Chloro-3-{(4S)-2-imino-4-methyl-1-[(2R*,4R*)-2-methyl-tetrahydropyran-4-yl]-6-oxo-hexahydropyrimidin-4-yl]phenyl)-4-fluorobenzamide hydrochloride], the 50% inhibitory concentration (IC50) was 132 nM.

`C[C@@H]1C[C@H](N2C(=N)N[C@](C)(c3cccc(NC(=O)c4ccccc4F)c3Cl)CC2=O)CCO1` (relative stereo) [Example 35, N-(2-Chloro-3-{(4S)-2-imino-4-methyl-1-[(2R*,4R*)-2-methyl-tetrahydropyran-4-yl]-6-oxo-hexahydropyrimidin-4-yl}phenyl)-2-fluorobenzamide trifluoroacetic acid salt]: the IC50 is 11 nM.

`C[C@@H]1C[C@H](N2C(=N)N[C@](C)(c3cccc(NC(=O)c4cc5ccccc5nn4)c3Cl)CC2=O)CCO1` (relative stereo) [Example 46, N-(2-Chloro-3-{(4S)-2-imino-4-methyl-1-[(2R*,4R*)-2-methyl-tetrahydropyran-4-yl]-6-oxo-hexahydropyrimidin-4-yl]phenyl)-cinnoline-3-carboxamide trifluoroacetic acid salt]: the IC50 turned out to be 41 nM.

In the case of `COc1ccc2ccccc2c1C(=O)Nc1cccc([C@]2(C)CC(=O)N([C@@H]3CCO[C@H](C)C3)C(=N)N2)c1Cl` (relative stereo) [Example 79, N-(2-Chloro-3-{(4S)-2-imino-4-methyl-1-[(2R*,4R*)-2-methyl-tetrahydropyran-4-yl]-6-oxo-hexahydropyrimidin-4-yl]phenyl)-2-methoxynaphthalene-1-carboxamide trifluoroacetic acid salt], the IC50 is 61 nM.

For the compound `C[C@@H]1C[C@H](N2C(=N)N[C@](C)(c3cccc(NC(=O)c4cccc(C#N)c4)c3Cl)CC2=O)CCC1(F)F` (relative stereo) [Example 25, N-(2-Chloro-3-{(4S)-1-[(1R*,3R*)-4,4-difluoro-3-methylcyclohexyl]-2-imino-4-methyl-6-oxohexahydro-pyrimidin-4-yl]phenyl)-3-cyano-benzamide trifluoroacetic acid salt], the midpoint of inhibition, the IC50, lay at 87 nM.

Consider `C[C@@H]1C[C@H](N2C(=N)N[C@](C)(c3cccc(NC(=O)c4cccc(-n5ccnc5)c4)c3Cl)CC2=O)CCO1` (relative stereo) [Example 105, N-(2-Chloro-3-{(4S)-2-imino-4-methyl-1-[(2R*,4R*)-2-methyl-tetrahydropyran-4-yl]-6-oxo-hexahydropyrimidin-4-yl]phenyl)-3-(imidazol-1-yl)benzamide hydrochloride], for which the half-maximal inhibitory concentration (IC50) is 44 nM.

`C[C@@H]1C[C@H](N2C(=N)N[C@](C)(c3cccc(NC(=O)c4ccc(Cl)cc4)c3Cl)CC2=O)CCO1` (relative stereo) [Example 9, 4-Chloro-N-(2-chloro-3-{(4S)-2-imino-4-methyl-1-[(2R*,4R*)-2-methyltetrahydropyran-4-yl]-6-oxo-hexahydropyrimidin-4-yl}phenyl)-benzamide hydrochloride] registered an IC50 of 52 nM.

The assay is the same for the next values; noted with them: Plasmodium falciparum, Erythrocyte; P. falciparum 3D7 in human erythrocytes, 72 h incubation, SYBR green fluorescence; read-out: IC50.
In the case of `COc1ccc(F)cc1C(=O)Nc1cccc([C@]2(C)CC(=O)N([C@@H]3CCO[C@H](C)C3)C(=N)N2)c1Cl` (relative stereo) [Example 87, N-(2-Chloro-3-{(4S)-2-imino-4-methyl-1-[(2,R*,4R*)-2-methyl-tetrahydropyran-4-yl]-6-oxo-hexahydropyrimidin-4-yl}phenyl)-5-fluoro-2-methoxybenzamide trifluoroacetic acid salt], the IC50 stood at 18 nM.
